From patent US20250346585A1 (Alexion Pharmaceuticals, Inc., priority 2022, published 2025)

molecular target: Human complement C1s enzyme (Homo sapiens (Human), UniProt P09871); experiment: Human C1s enzyme assay; assay type: biochemical; conditions: Human C1s enzyme assay of Example 3; read-out: IC50 (Stars)
How it was run: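 Purified serum-derived human C1s (1.16 nM final) preincubated 5 min at room temperature with compound in 50 mM Tris, 1 M NaCl, pH 7.5. Z-L-Lys-SBzl thioester substrate and DTNB added (100 μM each, final); A405 read every 30 s for 30 min. IC50 from nonlinear regression of reaction rates against compound concentration.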

Chain of Human complement C1s enzyme (P09871 438-688 limits assumed): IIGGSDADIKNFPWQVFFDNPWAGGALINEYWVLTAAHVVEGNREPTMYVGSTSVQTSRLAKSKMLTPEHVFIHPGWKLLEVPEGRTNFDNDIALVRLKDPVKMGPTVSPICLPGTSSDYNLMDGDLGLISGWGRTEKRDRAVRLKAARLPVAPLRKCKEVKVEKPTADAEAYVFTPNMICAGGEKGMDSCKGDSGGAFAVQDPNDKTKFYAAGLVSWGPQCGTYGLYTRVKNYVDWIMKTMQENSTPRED
Chain of Human complement C1s enzyme (P09871 16-437 partner limits assumed): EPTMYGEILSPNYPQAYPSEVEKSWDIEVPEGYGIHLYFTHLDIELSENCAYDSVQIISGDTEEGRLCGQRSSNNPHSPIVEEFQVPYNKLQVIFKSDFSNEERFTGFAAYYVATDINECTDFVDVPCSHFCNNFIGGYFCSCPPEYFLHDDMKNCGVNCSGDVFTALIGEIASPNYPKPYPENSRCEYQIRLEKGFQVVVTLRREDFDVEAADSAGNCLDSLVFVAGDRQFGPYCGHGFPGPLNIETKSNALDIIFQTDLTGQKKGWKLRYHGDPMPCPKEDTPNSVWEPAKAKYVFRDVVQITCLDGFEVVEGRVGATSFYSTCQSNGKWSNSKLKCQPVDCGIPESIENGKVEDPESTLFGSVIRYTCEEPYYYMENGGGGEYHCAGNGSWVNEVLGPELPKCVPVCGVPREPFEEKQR

IC50 [nM] | SMILES
< 100 | C[C@@H](NC(=O)[C@@H]1C[C@]2(COCCN)C[C@@H]2N1C(=O)CNC(=O)c1ccc(Oc2ccc(F)cc2)cc1)c1cc(C(=N)N)cs1 [Compound 69, (1S,3S,5R)-5-((2-aminoethoxy)methyl)-N—((R)-1-(4-carbamimidoylthiophen-2-yl)ethyl)-2-((4-(4-fluorophenoxy)benzoyl)glycyl)-2-azabicyclo[3.1.0]hexane-3-carboxamide]
< 100 | Cc1ccc(Oc2ccc(C(=O)NCC(=O)N3C[C@@](F)(CF)C[C@H]3C(=O)N[C@H](C)c3cc(C(=N)N)cs3)cc2)cc1 [Compound 14, (2S,4R)—N—((R)-1-(4-carbamimidoylthiophen-2-yl)ethyl)-4-fluoro-4-(fluoromethyl)-1-((4-(p-tolyloxy)benzoyl)glycyl)pyrrolidine-2-carboxamide]
< 100 | C[C@@H](NC(=O)[C@@H]1CC2(CN1C(=O)CNC(=O)c1ccc3c(c1)-c1ccccc1C3)OCCO2)c1cc(C(=N)N)cs1 [Compound 111, (S)-7-((9H-fluorene-3-carbonyl)glycyl)-N—((R)-1-(4-carbamimidoylthiophen-2-yl)ethyl)-1,4-dioxa-7-azaspiro[4.4]nonane-8-carboxamide]
< 100 | C[C@@H](NC(=O)[C@@H]1C[C@]2(CO)C[C@@H]2N1C(=O)CNC(=O)c1ccc(Oc2ccc(F)cc2)cc1)c1cc(C(=N)N)cs1 [Compound 42, (1S,3S,5R)—N—((R)-1-(4-carbamimidoylthiophen-2-yl)ethyl)-2-((4-(4-fluorophenoxy)benzoyl)glycyl)-5-(hydroxymethyl)-2-azabicyclo[3.1.0]hexane-3-carboxamide]

Further lines, the molecule ahead of its results:

SMILES | IC50 [nM]
CC(NC(=O)[C@@H]1CC2(CN1C(=O)CNC(=O)c1ccc(-c3ccccc3)cn1)OCCO2)c1cc(C(=N)N)cs1 (stereo in doubt) [Compound 167, (S)—N—((S)-1-(4-carbamimidoylthiophen-2-yl)ethyl)-7-((5-phenylpicolinoyl)glycyl)-1,4-dioxa-7-azaspiro[4.4]nonane-8-carboxamide] | < 100
Cc1ccc(Oc2ccc(C(=O)NCC(=O)N3CC4(C[C@H]3C(=O)N[C@H](C)c3cc(C(=N)N)cs3)OCCO4)cc2)cc1 [Compound 22, (S)—N—((R)-1-(4-carbamimidoylthiophen-2-yl)ethyl)-7-((4-(p-tolyloxy)benzoyl)glycyl)-1,4-dioxa-7-azaspiro[4.4]nonane-8-carboxamide] | < 100
Nc1ncccc1-c1csc(CNC(=O)[C@@H]2CC3(CN2C(=O)CNC(=O)c2ccc(Oc4ccc(F)cc4)cc2)OCCO3)c1 [Compound 122, (S)—N-((4-(2-aminopyridin-3-yl)thiophen-2-yl)methyl)-7-((4-(4-fluorophenoxy)benzoyl)glycyl)-1,4-dioxa-7-azaspiro[4.4]nonane-8-carboxamide] | > 1000
N=C(N)c1csc(CNC(=O)[C@@H]2CC3(CN2C(=O)CNC(=O)c2ccc(-c4ccccc4)c(F)c2)OCCO3)c1 [Compound 141, (S)—N-((4-carbamimidoylthiophen-2-yl)methyl)-7-((2-fluoro-[1,1′-biphenyl]-4-carbonyl)glycyl)-1,4-dioxa-7-azaspiro[4.4]nonane-8-carboxamide] | < 100
Cc1cnc(-c2ccc(C(=O)NCC(=O)N3CC4(C[C@H]3C(=O)N[C@H](C)c3cc(C(=N)N)cs3)OCCO4)cc2)c(C)c1 [Compound 173, (S)—N—((R)-1-(4-carbamimidoylthiophen-2-yl)ethyl)-7-((4-(3,5-dimethylpyridin-2-yl)benzoyl)glycyl)-1,4-dioxa-7-azaspiro[4.4]nonane-8-carboxamide] | < 100
N=C(N)c1csc(CNC(=O)[C@@H]2CC3(CN2C(=O)CNC(=O)c2ccc(-c4ccc(C(F)(F)F)cc4)cc2)OCCO3)c1 [Compound 116, (S)—N-((4-carbamimidoylthiophen-2-yl)methyl)-7-((4′-(trifluoromethyl)-[1,1′-biphenyl]-4-carbonyl)glycyl)-1,4-dioxa-7-azaspiro[4.4]nonane-8-carboxamide] | < 100

same assay, conditions: Human complement C1s enzyme 1.16 nM, substrate Z-L-Lys-SBzl 100 μM, assay of Example 3; read-out: IC50 (Stars)

IC50 [nM] | SMILES
< 100 | CC(=O)NCCNC[C@@]1(F)C[C@@H](C(=O)N[C@H](C)c2cc(C(=N)N)cs2)N(C(=O)CNC(=O)c2ccc3c(c2)-c2ccccc2C3(F)F)C1 [Compound 269, (2S,4S)-4-(((2-acetamidoethyl)amino)methyl)-N—((R)-1-(4-carbamimidoylthiophen-2-yl)ethyl)-1-((9,9-difluoro-9H-fluorene-3-carbonyl)glycyl)-4-fluoropyrrolidine-2-carboxamide]
< 100 | C[C@@H](NC(=O)[C@@H]1CC2(CN1C(=O)CNC(=O)c1ccc3nc4ccccc4cc3c1)OCCO2)c1cc(C(=N)N)cs1 [Compound 391, (S)-7-((acridine-2-carbonyl)glycyl)-N—((R)-1-(4-carbamimidoylthiophen-2-yl)ethyl)-1,4-dioxa-7-azaspiro[4.4]nonane-8-carboxamide]
< 100 | C[C@@H](NC(=O)[C@@H]1C[C@H](c2ccncc2)CN1C(=O)CNC(=O)c1ccc2c(c1)-c1ccccc1C2(F)F)c1cc(C(=N)N)cs1 [Compound 370, (2S,4R)—N—((R)-1-(4-carbamimidoylthiophen-2-yl)ethyl)-1-((9,9-difluoro-9H-fluorene-3-carbonyl)glycyl)-4-(pyridin-4-yl)pyrrolidine-2-carboxamide]
< 100 | CCCCCCOC(=O)/N=C(/N)c1csc([C@@H](C)NC(=O)[C@@H]2C[C@@H](OC(F)F)CN2C(=O)CNC(=O)c2ccc3c(c2)-c2ccccc2C3(F)F)c1 [Compound 258, hexyl ((E)-amino(5-((R)-1-((2S,4R)-1-((9,9-difluoro-9H-fluorene-3-carbonyl)glycyl)-4-(difluoromethoxy)pyrrolidine-2-carboxamido)ethyl)thiophen-3-yl)methylene)carbamate]
< 100 | C[C@@H](NC(=O)[C@@H]1C[C@@H](C(F)(F)F)CN1C(=O)CNC(=O)c1ccc2c(c1)-c1ccccc1C2(F)F)c1cc(C(=N)N)cs1 [Compound 324, (2S,4R)—N—((R)-1-(4-carbamimidoylthiophen-2-yl)ethyl)-1-((9,9-difluoro-9H-fluorene-3-carbonyl)glycyl)-4-(trifluoromethyl)pyrrolidine-2-carboxamide]

More lines, now with the values behind:

SMILES | IC50 [nM]
NCCCC(=O)Nc1csc(CNC(=O)[C@@H]2CC3(CN2C(=O)CNC(=O)c2ccc(Oc4ccc(F)cc4)cc2)OCCO3)c1 [Compound 320, (S)-N-((4-(4-aminobutanamido)thiophen-2-yl)methyl)-7-((4-(4-fluorophenoxy)benzoyl)glycyl)-1,4-dioxa-7-azaspiro[4.4]nonane-8-carboxamide] | > 1000
C[C@@H](NC(=O)[C@@H]1CC2(CN1C(=O)Cc1ccc(-c3ccccc3)cc1)OCCO2)c1cc(C(=N)N)cs1 [Compound 338, (S)-7-(2-([1,1′-biphenyl]-4-yl)acetyl)-N—((R)-1-(4-carbamimidoylthiophen-2-yl)ethyl)-1,4-dioxa-7-azaspiro[4.4]nonane-8-carboxamide] | < 100
O=C(NCC(=O)N1CC2(C[C@H]1C(=O)NCc1cc(N3CCCC3)cs1)OCCO2)c1ccc(Oc2ccc(F)cc2)cc1 [Compound 289, (S)-7-((4-(4-fluorophenoxy)benzoyl)glycyl)-N-((4-(pyrrolidin-1-yl)thiophen-2-yl)methyl)-1,4-dioxa-7-azaspiro[4.4]nonane-8-carboxamide] | 100 to 1000
